# Data taken from publication PMC5824918, “HMG-CoA reductase from Camphor Tulsi (Ocimum kilimandscharicum) regulated MVA dependent biosynthesis of diverse terpenoids in homologous and heterologous plant systems” (Scientific Reports, 2018).
# Tested on: T1, OkHMGR
# T1 construct: gene HMGR; cDNA from leaf
# Test: spectrophotometric NADPH oxidation at […] nm, Lineweaver-Burk plot
# Assay type: biochemical, Ocimum kilimandscharicum
# Conditions: 7.5 mM DTT, 150 mM potassium phosphate pH 7.0, 30 °C
compound,measurement,setting,value
CC(C)(COP(=O)(O)OP(=O)(O)OC[C@H]1O[C@@H](n2cnc3c(N)ncnc32)[C@H](O)[C@@H]1OP(=O)(O)O)[C@@H](O)C(=O)NCCC(=O)NCCSC(=O)C[C@@](C)(O)CC(=O)O [HMG-CoA],Km,co-substrate NADPH (3.0 mM in standard assay),88 µM
NC(=O)C1=CN([C@@H]2O[C@H](COP(=O)(O)OP(=O)(O)OC[C@H]3O[C@@H](n4cnc5c(N)ncnc54)[C@H](OP(=O)(O)O)[C@@H]3O)[C@@H](O)[C@H]2O)C=CC1 [NADPH],Km,co-substrate HMG-CoA (0.05 mM in standard assay),903 µM
